Measurements: paper PMC12249917, “Novel Au(I)- and Ag(I)-NHC Complexes with N-Boc-Protected Proline as Potential Candidates for Neurodegenerative Disorders” (International Journal of Molecular Sciences, 2025)
Read-outs that look alike come from different tables or passages of the source.

Tests used:
[1] = target: equine butyrylcholinesterase (eqBChE) (Equus caballus, UniProt P81908)
Protocol: (§1) The enzyme-inhibiting properties of the Au and Ag complexes against electric eel acetylcholinesterase (eeAChE) and equine butyrylcholinesterase (eqBChE) were assessed via a modified Ellman assay. […] A buffer-only control was included. The inhibition potency (IC50) was calculated from triplicate dose–response data, presented as the mean ± SD.

[2] = target: electric eel acetylcholinesterase (eeAChE) (Electrophorus electricus, UniProt O42275)
Sequence of electric eel acetylcholinesterase (eeAChE) (O42275 24-633): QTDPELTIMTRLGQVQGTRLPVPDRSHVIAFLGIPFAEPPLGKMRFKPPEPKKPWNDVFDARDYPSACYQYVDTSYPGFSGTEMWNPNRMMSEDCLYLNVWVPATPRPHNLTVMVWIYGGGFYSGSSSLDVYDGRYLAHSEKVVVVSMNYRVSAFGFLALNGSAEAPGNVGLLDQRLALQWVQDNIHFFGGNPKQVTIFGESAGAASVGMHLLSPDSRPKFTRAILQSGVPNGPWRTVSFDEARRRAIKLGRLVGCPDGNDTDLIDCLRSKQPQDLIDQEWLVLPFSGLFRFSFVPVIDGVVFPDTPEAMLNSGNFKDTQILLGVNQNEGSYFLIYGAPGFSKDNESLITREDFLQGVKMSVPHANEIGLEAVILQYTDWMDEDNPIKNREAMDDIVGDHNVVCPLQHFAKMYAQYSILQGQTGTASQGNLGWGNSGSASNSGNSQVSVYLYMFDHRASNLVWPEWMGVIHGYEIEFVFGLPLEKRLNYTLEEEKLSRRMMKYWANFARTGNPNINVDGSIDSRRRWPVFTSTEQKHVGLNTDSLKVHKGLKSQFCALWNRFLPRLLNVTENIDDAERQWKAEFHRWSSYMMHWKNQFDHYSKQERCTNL
Protocol: as §1

hMAO-B = target: T1, hMAO-B (Homo sapiens, UniProt P27338); format: biochemical; conditions: for IC50: mean ± S.D., three experiments in triplicate
T1 sequence (P27338 1-520): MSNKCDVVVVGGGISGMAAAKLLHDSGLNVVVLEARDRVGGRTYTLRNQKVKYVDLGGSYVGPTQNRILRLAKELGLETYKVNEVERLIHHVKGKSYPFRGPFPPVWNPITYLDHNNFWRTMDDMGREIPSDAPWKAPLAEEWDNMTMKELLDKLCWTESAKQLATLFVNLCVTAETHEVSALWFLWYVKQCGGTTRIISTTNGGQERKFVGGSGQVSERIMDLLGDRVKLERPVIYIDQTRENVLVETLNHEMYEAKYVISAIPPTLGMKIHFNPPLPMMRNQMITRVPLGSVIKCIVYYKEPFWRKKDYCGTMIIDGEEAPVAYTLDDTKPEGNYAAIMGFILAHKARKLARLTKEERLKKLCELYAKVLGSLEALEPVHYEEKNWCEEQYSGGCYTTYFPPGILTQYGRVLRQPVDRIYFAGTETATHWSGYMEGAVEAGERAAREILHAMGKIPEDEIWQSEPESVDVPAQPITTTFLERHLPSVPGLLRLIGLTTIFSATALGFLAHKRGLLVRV
Protocol: (§2) Altered levels of MAO-A/B are associated with the degeneration of neurotransmitter biogenic amines such as serotonin, noradrenaline, and dopamine and are implicated in several diseases, such as depression, cancer, PD, and AD [27]. With this in mind, we explored the potential of these complexes in inhibiting human MAO (hMAO) isoforms.
(§3) The inhibitory activity of the gold and silver complexes against hMAO-A and hMAO-B was evaluated using a previously published protocol. […] Data analysis was performed using GraphPad PRISM 9 (GraphPad Software®, San Diego, CA, USA). IC50 values were determined from the dose–response curves and were presented as the mean ± SD of three independent experiments, each conducted in triplicate.

hMAO-A = target: T2, hMAO-A (Homo sapiens, UniProt P21397); experiment: hMAO-A inhibitory activity; format: biochemical
T2 sequence (P21397 1-527): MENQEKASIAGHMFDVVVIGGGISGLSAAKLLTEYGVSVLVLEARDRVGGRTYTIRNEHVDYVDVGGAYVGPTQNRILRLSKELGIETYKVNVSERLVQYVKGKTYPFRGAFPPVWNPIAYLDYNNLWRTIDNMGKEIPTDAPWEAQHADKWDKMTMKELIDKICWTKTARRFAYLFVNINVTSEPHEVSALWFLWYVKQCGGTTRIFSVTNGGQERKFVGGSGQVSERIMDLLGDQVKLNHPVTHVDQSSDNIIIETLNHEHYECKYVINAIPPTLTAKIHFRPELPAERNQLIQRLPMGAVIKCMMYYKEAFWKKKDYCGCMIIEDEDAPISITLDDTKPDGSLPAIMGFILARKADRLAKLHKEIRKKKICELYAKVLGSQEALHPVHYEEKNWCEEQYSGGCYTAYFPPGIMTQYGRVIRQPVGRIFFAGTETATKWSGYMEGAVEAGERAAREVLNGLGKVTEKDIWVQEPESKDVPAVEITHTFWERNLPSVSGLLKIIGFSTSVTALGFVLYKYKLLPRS
Protocol: as §2, §3

RAW 264.7 cells = experiment: MTT cell viability, RAW 264.7; format: cell-based, murine; conditions: RAW 264.7, MTT, 24 h
Protocol: 3-(4,5-dimethylthiazol-2-yl)-2,5-diphenyl-2H-tetrazolium bromide (MTT) was added to the cells in order to measure the cell viability at 24 h, as previously reported. IC50 values were determined from the dose–response curves for both NO inhibition (%) and the cell viability (%) using GraphPad Prism 9 software (GraphPad Software, La Jolla, CA, USA) and were presented as the mean ± SD of three independent experiments, each conducted in triplicate.
Figure 2 Brown histograms: Anti-inflammatory activity in terms of NO production inhibition (%), measured in vitro using RAW 264.7 murine macrophages. NO production was induced by LPS (1 µg/mL). Data were plotted as % NO inhibition with respect to inhibition with LPS-only treatment. Salmon histograms: MTT assays performed in same experimental conditions in order to verify effect on RAW 264.7 cells’ viability of Indomethacin and tested complexes. Data were plotted as % of cell viability with respect to viability with LPS-only treatment (1 µg/mL). Indomethacin (Ind) was used at concentration of 25 µM, while all other complexes were used at 5 µM, for 24 h. Bars ± SDs are shown (n = 3). ** p < 0.01 and **** p < 0.0001 for complex 3bP and Ind vs. LPS only; not significant (n.s.) where not indicated.

[3] = system: NO production in LPS-stimulated RAW 264.7 murine macrophages (iNOS); experiment: Griess assay, NO production (iNOS) in LPS-stimulated RAW 264.7 macrophages; format: cell-based; conditions: for inhibition of NO production: 5 µM
Protocol: As a positive control, the nonsteroidal anti-inflammatory drug (NSAID) Indomethacin (Ind) was used.
Then, the cell culture medium was combined with an equal volume of Griess reagent at 40 mg/mL (ratio 1:1), and after a 30 min incubation with agitation, the optical density was measured at 540 nm. The levels of NO vs. LPS were calculated from the absorbance measurements using the following formula:(1) INO vs LPS (%)=ABSLPS−ABSSample/ABSLPS∗100 where ABSLPS represents the average absorbance of cells treated with LPS alone, and ABSsample represents the average absorbance of cells treated with both LPS and the tested complexes or Indomethacin.
NO production was induced by LPS (1 µg/mL). […] Salmon histograms: MTT assays performed in same experimental conditions in order to verify effect on RAW 264.7 cells’ viability of Indomethacin and tested complexes. Data were plotted as % of cell viability with respect to viability with LPS-only treatment (1 µg/mL).

[4] = system: intracellular ROS production in 3T3-L1 murine fibroblasts; experiment: Intracellular ROS (H2DCF-DA) in menadione-treated 3T3-L1 fibroblasts; format: cell-based; conditions: menadione 25 µM, 15 min; for ROS production reduced to, compared to Men treatment alone: 24 h
Protocol: N-acetyl-cysteine (NAC), a powerful antioxidant, was used as a positive control.
The antioxidant capacity of the Au and Ag complexes was evaluated in 3T3-L1 murine fibroblasts by assessing the intracellular reactive oxygen species (ROS) levels using a DCFH2-DA assay, following a previously established method [36]. The cells were seeded in 96-well plates and incubated with the tested complexes at concentrations of between 0.1 and 20 µM for a 24 h period. […] N-acetylcysteine (NAC), a recognized antioxidant, served as a positive control at 20 mM. […] The % of ROS production inhibition (IROS) vs. that of the menadione-treated cells was calculated using the following formula:(2) IROS vs Men (%)=FMen−FSample/FMen∗100 where FMen represents the average fluorescence of the cells treated with menadione alone, and Fsample represents the average fluorescence of the cells treated with both menadione and the tested complexes or NAC.
Data were plotted as % ROS inhibition with respect to inhibition with Men-only treatment.

[5] = read-out: IC50 (µM) eqBChE, mean ± S.D., three experiments in triplicate
[6] = read-out: IC50 (μM), hBChE (Table S1), Table S1, experimentally derived IC50, column headed hBChE
[7] = read-out: IC50 (µM) eeAChE, mean ± S.D., three experiments in triplicate
[8] = read-out: IC50 (μM), hAChE (Table S1), Table S1, experimentally derived IC50, column headed hAChE
[9] = mean ± S.D., three experiments in triplicate, read-out: IC50 (µM) hMAO-A
[10] = LPS 1 µg/mL, RAW 264.7, 24 h, read-out: IC50 (µM) NO Inhibition
[11] = Table S2, experimentally derived IC50, read-out: IC50 (μM), hMAOA (Table S2)

Sequence of equine butyrylcholinesterase (eqBChE) (P81908 whole entry): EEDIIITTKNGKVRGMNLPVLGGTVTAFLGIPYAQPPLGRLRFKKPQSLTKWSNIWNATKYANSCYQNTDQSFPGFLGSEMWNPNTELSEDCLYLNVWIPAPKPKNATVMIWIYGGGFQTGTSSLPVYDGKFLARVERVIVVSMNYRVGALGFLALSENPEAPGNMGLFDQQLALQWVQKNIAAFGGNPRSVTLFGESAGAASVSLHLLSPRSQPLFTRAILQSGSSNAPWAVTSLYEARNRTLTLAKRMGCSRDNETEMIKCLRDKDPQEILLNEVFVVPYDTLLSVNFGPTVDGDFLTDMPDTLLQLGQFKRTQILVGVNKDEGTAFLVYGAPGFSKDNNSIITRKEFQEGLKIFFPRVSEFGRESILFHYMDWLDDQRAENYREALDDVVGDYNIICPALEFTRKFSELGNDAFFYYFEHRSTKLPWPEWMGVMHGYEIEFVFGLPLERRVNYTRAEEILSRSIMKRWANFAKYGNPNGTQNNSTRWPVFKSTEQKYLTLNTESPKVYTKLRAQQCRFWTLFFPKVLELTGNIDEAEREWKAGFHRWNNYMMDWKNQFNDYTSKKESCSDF

Structure (SMILES)	SI, eqBChE selectivity index = IC50(eeAChE)/IC50(eqBChE) [1]	IC50 [1, 5]	IC50 [1, 6]	IC50 [2, 7]	IC50 [2, 8]	SI, hMAO-B selectivity index = IC50(hMAO-A)/IC50(hMAO-B) (hMAO-B)	IC50 (hMAO-B)	IC50 (hMAO-A; [9])	IC50 (RAW 264.7 cells)	IC50 [3, 10]	ROS production reduced to, compared to Men treatment alone ([4]; 10 µM)	ROS production reduced to, compared to Men treatment alone ([4]; 1 µM)	inhibition of NO production ([3]; 24 h, vs LPS-only treatment)	IC50 ([3]; Table S3, experimentally derived IC50, read-out: IC50 (μM), iNOS (Table S3))	IC50 (hMAO-A; [11])	IC50 (RAW 264.7 cells; Mus musculus, RAW264.7)	inhibition at 25 µM ([3]; Mus musculus, RAW264.7, 25 µM, 24 h, vs LPS-only treatment)	IC50 ([3]; Mus musculus, RAW264.7, LPS 1 µg/mL, RAW 264.7, 24 h, read-out: IC50 (µM) NO Inhibition)	ROS formation reduced to [4]
C[n+]1c(Cl)c(Cl)n(CC(O)c2ccccc2)[c]1[Au-][O]C(=O)[C@@H]1CCCN1C(=O)OC(C)(C)C (some centres unmarked) [2bP]	1.49	3.14 ± 0.33 µM	3.1 ± 0.02 µM	4.68 ± 0.47 µM	4.7 ± 0.02 µM	0.37	1.94 ± 0.09 µM	0.72 ± 0.02 µM	> 50 µM	32.3 ± 1.82 µM	–	–	–	–	–	–	–	–	–
C[n+]1ccn(CC(O)c2ccccc2)[c]1[Ag-][O]C(=O)[C@@H]1CCCN1C(=O)OC(C)(C)C (some centres unmarked) [1aP]	–	> 25 µM	–	> 25 µM	–	–	> 25 µM	> 25 µM	> 50 µM	> 50 µM	–	–	–	–	–	–	–	–	–
C[n+]1[c]([Au-][O]C(=O)[C@@H]2CCCN2C(=O)OC(C)(C)C)n(CC(O)c2ccccc2)c2ccccc21 (some centres unmarked) [4bP]	8.27	0.45 ± 0.06 µM	–	3.72 ± 0.44 µM	3.7 ± 0.02 µM	0.03	2.1 ± 0.2 µM	0.0713 µM	12.1 ± 1.03 µM	13.1 ± 0.92 µM	approximately 60%	–	–	–	–	–	–	–	–
C[n+]1c(-c2ccccc2)c(-c2ccccc2)n(CC(O)c2ccccc2)[c]1[Au-][O]C(=O)[C@@H]1CCCN1C(=O)OC(C)(C)C (some centres unmarked) [3bP]	–	> 25 µM	–	5.89 ± 0.56 µM	–	0.39	4.75 ± 0.75 µM	1.84 ± 0.18 µM	20.3 ± 1.26 µM	4.88 ± 0.58 µM	–	approximately 70%	about 52%	4.9 ± 0.5 µM	–	–	–	–	–
C[n+]1c(Cl)c(Cl)n(CC(O)c2ccccc2)[c]1[Ag-][O]C(=O)[C@@H]1CCCN1C(=O)OC(C)(C)C (some centres unmarked) [2aP]	>1.37	18.2 ± 2.4 µM	18.2 ± 0.02 µM	> 25 µM	–	1.53	9.82 ± 0.84 µM	15 ± 1.02 µM	> 50 µM	> 50 µM	–	–	–	–	15 ± 0.9 µM	–	–	–	–
C[n+]1c(-c2ccccc2)c(-c2ccccc2)n(CC(O)c2ccccc2)[c]1[Ag-][O]C(=O)[C@@H]1CCCN1C(=O)OC(C)(C)C (some centres unmarked) [3aP]	>1.44	17.4 ± 0.98 µM	–	> 25 µM	–	–	> 25 µM	25 ± 2.95 µM	> 50 µM	30.9 ± 1.74 µM	–	–	approximately 8%	–	–	–	–	–	–
C[n+]1[c]([Ag-][O]C(=O)[C@@H]2CCCN2C(=O)OC(C)(C)C)n(CC(O)c2ccccc2)c2ccccc21 (some centres unmarked) [4aP]	2.68	5.19 ± 0.95 µM	5.2 ± 0.05 µM	14 ± 0.72 µM	13.9 ± 0.01 µM	0.32	10.4 ± 1.95 µM	3.32 ± 0.15 µM	> 50 µM	> 50 µM	–	–	–	–	3.3 ± 0.01 µM	–	–	–	–
C[n+]1ccn(CC(O)c2ccccc2)[c]1[Au-][O]C(=O)[C@@H]1CCCN1C(=O)OC(C)(C)C (some centres unmarked) [1bP]	2.97	6.19 ± 0.91 µM	–	18.4 ± 1.43 µM	–	0.35	3.78 ± 0.16 µM	1.32 ± 0.02 µM	> 50 µM	> 50 µM	–	–	–	–	–	–	–	–	–
COc1ccc2c(c1)c(CC(=O)O)c(C)n2C(=O)c1ccc(Cl)cc1 [Indomethacin, reference compound]	–	–	–	–	–	–	–	–	–	–	–	–	–	–	–	> 50 µM	~20%	> 50 µM	–
CC(=O)N[C@@H](CS)C(=O)O [NAC, N-acetyl-cysteine, reference compound]	–	–	–	–	–	–	–	–	–	–	–	–	–	–	–	–	–	–	approximately 70%
